pEC50: −log10 of the molar value. Each block holds one molecule with its values, some of them ahead of it.
What was measured:
Assay type in all cases: cell-based
[1] = test system: JAK2; assay: Western blot assay, JAK2 protein degradation; details: MHH-CALL-4 cells, vehicle control = 100%
Method: (§1) Western blot assay: MHH-CALL-4 Cells were washed twice with ice-cold PBS and lysed in RIPA lysis buffer (Sigma) freshly supplemented with Halt™ Protease Inhibitor Cocktail (ThermoFisher) for 15 minutes on ice. The cell pellet was removed by centrifugation at 13,000 g at 4° C. for 15 minutes. Protein concentration was measured by BCA assay (Thermo Fisher Scientific). Proteins were denatured in NuPAGE LDS 4× sample buffer supplemented with reducing agents (Invitrogen). Typically, 10-20 μg of total protein was loaded per lane on a 4%-12% NUPAGE Bis-Tris gradient gel (Invitrogen) and analyzed by standard immunoblotting and imaged using Li—COR Odyssey CLx (LI-COR Biotechnology, Lincoln, NE). To access the protein degradation, the signal of target protein was normalized by the signal of ACBT and the signal of vehicle control was set as 100%. Primary antibodies used were: JAK1 (Cell Signaling #3332S), JAK2 (#3230S), JAK3 (#8827S), TYK2 (#9312S), GSPT1 (#14980S), CRBN (#71810S), IKZF1 (Santa Cruz Biotechnology, SC-398265) and ACBT (Santa Cruz Biotechnology, SC-47778).

[2] = test system: MHH-CALL-4 cells; assay: Cytotoxicity assay (resazurin, 72 hours); parameters: AUC: unit not given beside the values; details: for pEC50: MHHCALL4, resazurin; for AUC: area under the dose-response curve
Method: Cytotoxicity assay: MHH-CALL-4 cells were maintained in RPMI1640 medium (Invitrogen) supplemented with 10% FBS (Hyclone), Penicillin/Streptomycin (100 units/mL) and Glutamine (100 μM). 2×10^5 cells were seeded in 100 μl medium/well in 96 well assay plates (Corning 3603). Assays were performed in triplicate; compounds to be screened were added to assay plates from DMSO stock solutions by pin transfer using 50SS pins (V&P Scientific). The assay plates incubated at 37° C. in 5% CO2 for 72 hours. Cells were then incubated for four hours with resazurin (Sigma) solution and read on a Synergy HT plate reader (Biotek, Winooski, VT). High-throughput assay data was analyzed using our in-house Robust Interpretation of Screening Experiments (RISE) application written in Pipeline Pilot (Biovia, v. 17.2.0) and the R program (R Core Team, 2013). All the AUC (area under the dose-response curve) per compound calculated from its dose response curve by RISE protocol. Selected data were plotted and analyzed by GraphPad Prism software v7 using non-linear regression curve fitting.

[3] = molecular target: T1, GSPT1 (Homo sapiens, UniProt P15170); assay: Western blot assay, GSPT1 neosubstrate degradation; details: MHH-CALL-4 cells, vehicle control = 100%; for remaining activity at 0.1 µM: MHHCALL4, 100 nM, 24 h
T1 construct: endogenous in cells; host or cells: MHH-CALL-4
T1 sequence (P15170 whole entry): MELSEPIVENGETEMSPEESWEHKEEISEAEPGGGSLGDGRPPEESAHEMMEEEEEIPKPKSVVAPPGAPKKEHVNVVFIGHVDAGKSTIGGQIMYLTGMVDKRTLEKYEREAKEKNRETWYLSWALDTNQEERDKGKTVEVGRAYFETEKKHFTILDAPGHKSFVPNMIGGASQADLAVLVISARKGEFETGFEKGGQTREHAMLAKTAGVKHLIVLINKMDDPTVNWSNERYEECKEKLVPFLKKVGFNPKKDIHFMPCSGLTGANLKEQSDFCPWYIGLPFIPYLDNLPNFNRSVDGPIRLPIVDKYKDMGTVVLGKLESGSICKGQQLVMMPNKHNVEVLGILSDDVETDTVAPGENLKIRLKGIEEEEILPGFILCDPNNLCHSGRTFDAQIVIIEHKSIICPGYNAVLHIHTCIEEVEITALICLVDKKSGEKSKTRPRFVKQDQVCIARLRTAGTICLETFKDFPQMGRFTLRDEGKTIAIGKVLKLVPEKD
Method: as §1

[4] = molecular target: T2, JAK3 (Homo sapiens, UniProt P52333); assay: Western blot assay, JAK3 protein degradation; details: MHHCALL4; 100 nM, 24 h; MHH-CALL-4 cells; vehicle control = 100%; read-out: Target Protein Degradation (% remaining at 100 nM, 24 h) JAK3
T2 construct: endogenous in cells; host or cells: MHH-CALL-4
T2 sequence (P52333 1-1124): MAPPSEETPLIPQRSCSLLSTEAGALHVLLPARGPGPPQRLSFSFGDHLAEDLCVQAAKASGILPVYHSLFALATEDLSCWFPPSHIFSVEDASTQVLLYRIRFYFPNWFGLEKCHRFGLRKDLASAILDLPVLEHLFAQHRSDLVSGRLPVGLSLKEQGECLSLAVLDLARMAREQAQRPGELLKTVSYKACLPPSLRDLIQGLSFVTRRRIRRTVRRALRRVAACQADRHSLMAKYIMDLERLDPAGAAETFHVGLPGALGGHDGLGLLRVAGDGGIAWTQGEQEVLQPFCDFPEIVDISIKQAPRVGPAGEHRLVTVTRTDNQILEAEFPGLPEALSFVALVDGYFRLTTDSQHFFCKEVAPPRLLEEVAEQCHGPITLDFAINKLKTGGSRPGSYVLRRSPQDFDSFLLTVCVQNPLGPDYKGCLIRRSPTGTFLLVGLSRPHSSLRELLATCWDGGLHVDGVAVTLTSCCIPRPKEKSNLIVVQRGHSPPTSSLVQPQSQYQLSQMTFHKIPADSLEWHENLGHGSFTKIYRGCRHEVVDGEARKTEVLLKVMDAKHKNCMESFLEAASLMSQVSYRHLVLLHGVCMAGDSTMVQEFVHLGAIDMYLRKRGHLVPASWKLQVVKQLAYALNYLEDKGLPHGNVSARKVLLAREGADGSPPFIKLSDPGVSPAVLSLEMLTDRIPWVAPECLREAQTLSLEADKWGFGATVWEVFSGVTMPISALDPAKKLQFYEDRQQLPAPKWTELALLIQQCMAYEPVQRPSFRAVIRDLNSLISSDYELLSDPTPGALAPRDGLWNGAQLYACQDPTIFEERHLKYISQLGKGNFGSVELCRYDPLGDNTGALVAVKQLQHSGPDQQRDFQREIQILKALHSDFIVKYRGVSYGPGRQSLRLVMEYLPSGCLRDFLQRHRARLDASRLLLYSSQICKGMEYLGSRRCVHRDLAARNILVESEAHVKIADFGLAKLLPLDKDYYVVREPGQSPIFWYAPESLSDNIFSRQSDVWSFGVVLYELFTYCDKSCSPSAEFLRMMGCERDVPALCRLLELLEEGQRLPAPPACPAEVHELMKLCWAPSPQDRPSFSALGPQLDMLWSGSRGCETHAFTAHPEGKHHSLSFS
Method: as §1

Neosubstrate Degradation (% remaining at 100 nM, 24 h) GSPT1 [3]: None
Compound: CCS(=O)(=O)N1CC(CC#N)(n2cc(-c3nc(Nc4ccc(C(=O)N5CCN(c6ccc(C7CCC(=O)NC7=O)cc6)CC5)cc4)nc4[nH]ccc34)cn2)C1 (stereo not drawn) [Compound 2]
Target Protein Degradation (% remaining at 100 nM, 24 h) JAK2 [1]: None | pEC50 [2]: 9.00 | AUC [2]: 167

remaining activity at 0.1 µM [3]: 0%
Compound: CCCn1cc(-c2nc(Nc3ccc(C(=O)NCCN4CCN(c5cccc6c5C(=O)N(C5CCC(=O)NC5=O)C6=O)CC4)cc3)nc3[nH]ccc23)cn1 (stereo not drawn) [Compound 24]
Target Protein Degradation (% remaining at 100 nM, 24 h) JAK2 [1]: 93 % remaining | pEC50 [2]: 7.08 | AUC [2]: 208

Neosubstrate Degradation (% remaining at 100 nM, 24 h) GSPT1 [3]: Medium
Compound: CCCn1cc(-c2nc(Nc3ccc(C(=O)N4CCN(c5cccc6c5C(=O)N(C5CCC(=O)NC5=O)C6=O)CC4)cc3)nc3[nH]ccc23)cn1 (stereo not drawn) [Compound 26]
Target Protein Degradation (% remaining at 100 nM, 24 h) JAK2 [1]: None | pEC50 [2]: 6.53 | AUC [2]: 217

remaining activity at 0.1 µM [3]: 102%
Compound: CCS(=O)(=O)N1CC(CC#N)(n2cc(-c3nc(Nc4ccc(C(=O)N5CC6(C5)CN(c5ccc(C7CCC(=O)NC7=O)cc5)C6)cc4)nc4[nH]ccc34)cn2)C1 (stereo not drawn) [Compound 53, 2-(3-(4-(2-((4-(6-(4-(2,6-dioxopiperidin-3-yl)phenyl)-2,6-diazaspiro[3.3]heptane-2-carbonyl)phenyl)amino)-7H-pyrrolo[2,3-d]pyrimidin-4-yl)-1H-pyrazol-1-yl)-1-(ethylsulfonyl)azetidin-3-yl)acetonitrile]
Target Protein Degradation (% remaining at 100 nM, 24 h) JAK2 [1]: 36 % remaining | pEC50 [2]: 8.77 | AUC [2]: 142

remaining activity at 0.1 µM [3]: 125%
Compound: CCS(=O)(=O)N1CC(CC#N)(n2cc(-c3nc(Nc4ccc(C(=O)NCCCN5CC6CCC5CN6c5ccc(C6CCC(=O)NC6=O)cc5)cc4)nc4[nH]ccc34)cn2)C1 (stereo not drawn) [Compound 54, 4-((4-(1-(3-(cyanomethyl)-1-(ethylsulfonyl)azetidin-3-yl)-1H-pyrazol-4-yl)-7H-pyrrolo[2,3-d]pyrimidin-2-yl)amino)-N-(3-(5-(4-(2,6-dioxopiperidin-3-yl)phenyl)-2,5-diazabicyclo[2.2.2]octan-2-yl)propyl)benzamide]
Target Protein Degradation (% remaining at 100 nM, 24 h) JAK2 [1]: 62 % remaining | pEC50 [2]: 8.20 | AUC [2]: 67

Further lines, the molecule ahead of its results:

Compound: CCS(=O)(=O)N1CC(CC#N)(n2cc(-c3nc(Nc4ccc(C(=O)NCCOCCOc5cccc(C6CCC(=O)NC6=O)c5)cc4)nc4[nH]ccc34)cn2)C1 (stereo not drawn) [Compound 9]
pEC50 [2]: 6.06 | AUC [2]: 132

Compound: CCS(=O)(=O)N1CC(CC#N)(n2cc(-c3nc(Nc4ccc(C(=O)NCCOCCOCCOc5ccc(C6CCC(=O)NC6=O)cc5)cc4)nc4[nH]ccc34)cn2)C1 (stereo not drawn) [Compound 12]
pEC50 [2]: < 5.30 | AUC [2]: 116

Compound: CCS(=O)(=O)N1CC(CC#N)(n2cc(-c3nc(Nc4ccc(C(=O)NCCCCNc5ccc(C6CCC(=O)NC6=O)cc5)cc4)nc4[nH]ccc34)cn2)C1 (stereo not drawn) [Compound 13]
pEC50 [2]: < 5.30 | AUC [2]: 93

Compound: CCS(=O)(=O)N1CC(CC#N)(n2cc(-c3nc(Nc4ccc(C(=O)NCCCCNC(=O)COc5ccc(C6CCC(=O)NC6=O)cc5)cc4)nc4[nH]ccc34)cn2)C1 (stereo not drawn) [Compound 15]
Target Protein Degradation (% remaining at 100 nM, 24 h) JAK2 [1]: 29 % remaining | pEC50 [2]: < 5.26 | AUC [2]: 156 | remaining activity at 0.1 µM [3]: 78%

Compound: CCS(=O)(=O)N1CC(CC#N)(n2cc(-c3nc(Nc4ccc(C(=O)NCCCCCNC(=O)COc5ccc(C6CCC(=O)NC6=O)cc5)cc4)nc4[nH]ccc34)cn2)C1 (stereo not drawn) [Compound 16]
pEC50 [2]: < 5.24 | AUC [2]: 136

Compound: CCS(=O)(=O)C1CC(CC#N)(n2cc(-c3nc(Nc4ccc(C(=O)N5CCN(c6ccc7c(c6)C(=O)N(C6CCC(=O)NC6=O)C7=O)CC5)cc4)nc4[nH]ccc34)cn2)C1 (stereo not drawn) [Compound 21]
Target Protein Degradation (% remaining at 100 nM, 24 h) JAK2 [1]: 53 % remaining | pEC50 [2]: 7.86 | AUC [2]: 118

Compound: CCCn1cc(-c2nc(Nc3ccc(C(=O)NCCCN4CCN(c5cccc6c5C(=O)C(C5CCC(=O)NC5=O)C6=O)CC4)cc3)nc3[nH]ccc23)cn1 (stereo not drawn) [Compound 25]
Target Protein Degradation (% remaining at 100 nM, 24 h) JAK2 [1]: None | pEC50 [2]: 6.77 | AUC [2]: 250 | Neosubstrate Degradation (% remaining at 100 nM, 24 h) GSPT1 [3]: Medium

Compound: CCS(=O)(=O)N1CC(CC#N)(n2cc(-c3nc(Nc4ccc(C(=O)NCCN5CCC(c6ccc7c(c6)CN(C6CCC(=O)NC6=O)C7=O)CC5)cc4)nc4[nH]ccc34)cn2)C1 (stereo not drawn) [Compound 35, 4-((4-(1-(3-(cyanomethyl)-1-(ethylsulfonyl)azetidin-3-yl)-1H-pyrazol-4-yl)-7H-pyrrolo[2,3-d]pyrimidin-2-yl)amino)-N-(2-(4-(2-(2,6-dioxopiperidin-3-yl)-1-oxoisoindolin-5-yl)piperidin-1-yl)ethyl)benzamide]
Target Protein Degradation (% remaining at 100 nM, 24 h) JAK2 [1]: 33 % remaining | pEC50 [2]: 7.66 | AUC [2]: 223 | remaining activity at 0.1 µM [4]: 51% | remaining activity at 0.1 µM [3]: 116%

Compound: CCS(=O)(=O)N1CC(CC#N)(n2cc(-c3nc(Nc4ccc(C(=O)NCCCN5CC6CC5CN6c5ccc(C6CCC(=O)NC6=O)cc5)cc4)nc4[nH]ccc34)cn2)C1 (stereo not drawn) [Compound 48, 4-((4-(1-(3-(cyanomethyl)-1-(ethylsulfonyl)azetidin-3-yl)-1H-pyrazol-4-yl)-7H-pyrrolo[2,3-d]pyrimidin-2-yl)amino)-N-(3-(5-(4-(2,6-dioxopiperidin-3-yl)phenyl)-2,5-diazabicyclo[2.2.1]heptan-2-yl)propyl)benzamide]
Target Protein Degradation (% remaining at 100 nM, 24 h) JAK2 [1]: 76 % remaining | pEC50 [2]: 7.56 | AUC [2]: 80

Compound: CCS(=O)(=O)N1CC(CC#N)(n2cc(-c3nc(Nc4ccc(C(=O)NCCCN5CCC6(CC5)CCN(c5ccc(C7CCC(=O)NC7=O)cc5)CC6)cc4)nc4[nH]ccc34)cn2)C1 (stereo not drawn) [Compound 51]
Target Protein Degradation (% remaining at 100 nM, 24 h) JAK2 [1]: 67 % remaining | pEC50 [2]: 6.65 | AUC [2]: 105

Compound: CCS(=O)(=O)N1CC(CC#N)(n2cc(-c3nc(Nc4ccc(C(=O)NCCCN5CCC6(CCN(c7ccc(C8CCC(=O)NC8=O)cc7)CC6)C5)cc4)nc4[nH]ccc34)cn2)C1 (stereo not drawn) [Compound 56, 4-((4-(1-(3-(cyanomethyl)-1-(ethylsulfonyl)azetidin-3-yl)-1H-pyrazol-4-yl)-7H-pyrrolo[2,3-d]pyrimidin-2-yl)amino)-N-(3-(8-(4-(2,6-dioxopiperidin-3-yl)phenyl)-2,8-diazaspiro[4.5]decan-2-yl)propyl)benzamide]
Target Protein Degradation (% remaining at 100 nM, 24 h) JAK2 [1]: 58 % remaining | pEC50 [2]: 5.58 | AUC [2]: 172 | remaining activity at 0.1 µM [3]: 102%
